Measurements taken from ChEMBL document CHEMBL4680122, “Design, synthesis and biological evaluation of new Axl kinase inhibitors containing 1,3,4-oxadiazole acetamide moiety as novel linker” (Eur J Med Chem, 2020).

Tests used:
MCF7 = assay: Antiproliferative activity against human MCF7 cells measured after 72 hrs by MTT assay; format: functional, cell-based; details: MCF7, 72 h
[1] = target: Tyrosine-protein kinase receptor UFO (Homo sapiens) (UniProt P30530); details: dose 100.0 nM, time 1.0 hrs
A549 = assay: cells; details: Homo sapiens, A549, 72 h
Description: Antiproliferative activity against human A549 cells measured after 72 hrs by MTT assay

PC-3 = assay: cells; details: Homo sapiens, PC-3, 72 h
Description: Antiproliferative activity against human PC-3 cells measured after 72 hrs by MTT assay

HT-29 = assay: Antiproliferative activity against human HT-29 cells measured after 72 hrs by MTT assay; details: HT-29, 72 h
[2] = target: Hepatocyte growth factor receptor (Homo sapiens, UniProt P08581); assay: Inhibition of human N-terminal GST-fused c-MET cytoplasmic domain (956 to 1390 residues) expressed in baculovirus expression system using Srctide as substrate measured after 1 hr by mobility shift assay
[3] = target: Vascular endothelial growth factor receptor 2 (Homo sapiens, UniProt P35968); assay: Inhibition of human N-terminal GST-fused KDR cytoplasmic domain (790 to 1356 residues) expressed in baculovirus expression system using CSKtide as substrate measured after 1 hr by mobility shift assay
[4] = target: Mast/stem cell growth factor receptor Kit (Homo sapiens, UniProt P10721); assay: Inhibition of human N-terminal GST-tagged c-Kit cytoplasmic domain (544 to end residues) expressed in baculovirus infected Sf21 insect cells using peptide substrate measured after 1 hr by mobility shift assay
[5] = target: T1, Receptor-type tyrosine-protein kinase FLT3 (Homo sapiens, UniProt P36888); assay: Inhibition of human N-terminal GST-fused FLT3 cytoplasmic domain (564 to 993 residues) expressed in baculovirus expression system using Srctide as substrate measured after 1 hr by mobility shift assay
T1 sequence (P36888 whole entry): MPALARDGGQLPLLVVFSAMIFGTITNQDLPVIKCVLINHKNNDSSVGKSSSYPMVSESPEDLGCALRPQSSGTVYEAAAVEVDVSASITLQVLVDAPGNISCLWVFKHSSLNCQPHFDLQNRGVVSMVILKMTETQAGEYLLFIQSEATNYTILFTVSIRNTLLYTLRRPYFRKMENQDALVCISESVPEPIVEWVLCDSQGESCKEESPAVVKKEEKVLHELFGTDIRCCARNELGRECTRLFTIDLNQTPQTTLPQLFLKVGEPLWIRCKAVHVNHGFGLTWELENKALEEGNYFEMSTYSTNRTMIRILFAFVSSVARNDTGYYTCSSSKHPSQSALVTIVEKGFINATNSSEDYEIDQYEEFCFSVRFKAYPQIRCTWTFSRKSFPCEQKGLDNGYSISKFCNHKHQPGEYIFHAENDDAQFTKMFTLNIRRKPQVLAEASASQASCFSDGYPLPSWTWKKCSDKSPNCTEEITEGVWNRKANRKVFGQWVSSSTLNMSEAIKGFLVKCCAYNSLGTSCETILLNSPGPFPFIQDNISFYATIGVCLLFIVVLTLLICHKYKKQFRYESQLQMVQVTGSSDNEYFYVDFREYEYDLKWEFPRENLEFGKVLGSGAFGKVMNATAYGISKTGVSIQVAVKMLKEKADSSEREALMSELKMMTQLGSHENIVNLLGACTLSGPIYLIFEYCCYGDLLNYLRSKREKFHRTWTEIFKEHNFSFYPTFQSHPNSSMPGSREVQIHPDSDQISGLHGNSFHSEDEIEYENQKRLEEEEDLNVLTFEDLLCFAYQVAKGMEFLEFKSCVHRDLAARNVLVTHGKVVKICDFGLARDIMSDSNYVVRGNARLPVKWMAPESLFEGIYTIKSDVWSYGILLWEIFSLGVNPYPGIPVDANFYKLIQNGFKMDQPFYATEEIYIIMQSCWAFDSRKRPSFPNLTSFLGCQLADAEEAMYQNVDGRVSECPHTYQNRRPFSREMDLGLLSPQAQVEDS

[6] = target: Platelet-derived growth factor receptor beta (Homo sapiens, UniProt P09619); assay: Inhibition of human His-tagged PDGFRB cytoplasmic domain expressed in baculovirus expression system using peptide substrate measured after 1 hr by mobility shift assay
[7] = target: T2, Tyrosine-protein kinase Mer (Homo sapiens, UniProt Q12866); assay: Inhibition of MER (unknown origin)
T2 sequence (Q12866 whole entry): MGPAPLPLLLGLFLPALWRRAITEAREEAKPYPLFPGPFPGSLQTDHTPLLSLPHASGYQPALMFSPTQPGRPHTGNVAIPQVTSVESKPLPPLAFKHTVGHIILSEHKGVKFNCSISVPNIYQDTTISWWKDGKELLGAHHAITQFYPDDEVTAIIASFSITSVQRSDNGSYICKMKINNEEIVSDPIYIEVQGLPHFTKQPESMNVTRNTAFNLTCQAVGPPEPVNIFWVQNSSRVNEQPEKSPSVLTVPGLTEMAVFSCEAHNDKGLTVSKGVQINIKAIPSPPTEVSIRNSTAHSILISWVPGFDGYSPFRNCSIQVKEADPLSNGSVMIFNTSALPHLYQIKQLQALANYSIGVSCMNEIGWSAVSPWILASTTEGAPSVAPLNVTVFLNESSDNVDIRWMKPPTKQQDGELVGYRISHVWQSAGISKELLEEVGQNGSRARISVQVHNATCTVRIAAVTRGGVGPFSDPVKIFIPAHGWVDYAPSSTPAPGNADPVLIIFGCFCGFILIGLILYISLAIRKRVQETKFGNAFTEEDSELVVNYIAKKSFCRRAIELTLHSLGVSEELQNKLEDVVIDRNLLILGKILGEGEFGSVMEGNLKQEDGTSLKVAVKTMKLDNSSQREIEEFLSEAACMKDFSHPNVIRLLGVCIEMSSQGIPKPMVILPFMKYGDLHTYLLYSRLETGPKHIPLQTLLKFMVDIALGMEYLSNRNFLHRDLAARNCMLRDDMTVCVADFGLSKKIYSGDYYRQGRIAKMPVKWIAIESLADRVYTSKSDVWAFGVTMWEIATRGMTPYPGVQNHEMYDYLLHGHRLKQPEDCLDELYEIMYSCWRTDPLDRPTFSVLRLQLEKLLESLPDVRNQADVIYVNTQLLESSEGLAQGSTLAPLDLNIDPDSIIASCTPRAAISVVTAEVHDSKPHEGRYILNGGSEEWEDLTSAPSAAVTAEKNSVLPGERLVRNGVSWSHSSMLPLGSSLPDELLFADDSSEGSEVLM

Vascular endothelial growth factor receptor 2, sequence (P35968 whole entry, the tested form may be a part): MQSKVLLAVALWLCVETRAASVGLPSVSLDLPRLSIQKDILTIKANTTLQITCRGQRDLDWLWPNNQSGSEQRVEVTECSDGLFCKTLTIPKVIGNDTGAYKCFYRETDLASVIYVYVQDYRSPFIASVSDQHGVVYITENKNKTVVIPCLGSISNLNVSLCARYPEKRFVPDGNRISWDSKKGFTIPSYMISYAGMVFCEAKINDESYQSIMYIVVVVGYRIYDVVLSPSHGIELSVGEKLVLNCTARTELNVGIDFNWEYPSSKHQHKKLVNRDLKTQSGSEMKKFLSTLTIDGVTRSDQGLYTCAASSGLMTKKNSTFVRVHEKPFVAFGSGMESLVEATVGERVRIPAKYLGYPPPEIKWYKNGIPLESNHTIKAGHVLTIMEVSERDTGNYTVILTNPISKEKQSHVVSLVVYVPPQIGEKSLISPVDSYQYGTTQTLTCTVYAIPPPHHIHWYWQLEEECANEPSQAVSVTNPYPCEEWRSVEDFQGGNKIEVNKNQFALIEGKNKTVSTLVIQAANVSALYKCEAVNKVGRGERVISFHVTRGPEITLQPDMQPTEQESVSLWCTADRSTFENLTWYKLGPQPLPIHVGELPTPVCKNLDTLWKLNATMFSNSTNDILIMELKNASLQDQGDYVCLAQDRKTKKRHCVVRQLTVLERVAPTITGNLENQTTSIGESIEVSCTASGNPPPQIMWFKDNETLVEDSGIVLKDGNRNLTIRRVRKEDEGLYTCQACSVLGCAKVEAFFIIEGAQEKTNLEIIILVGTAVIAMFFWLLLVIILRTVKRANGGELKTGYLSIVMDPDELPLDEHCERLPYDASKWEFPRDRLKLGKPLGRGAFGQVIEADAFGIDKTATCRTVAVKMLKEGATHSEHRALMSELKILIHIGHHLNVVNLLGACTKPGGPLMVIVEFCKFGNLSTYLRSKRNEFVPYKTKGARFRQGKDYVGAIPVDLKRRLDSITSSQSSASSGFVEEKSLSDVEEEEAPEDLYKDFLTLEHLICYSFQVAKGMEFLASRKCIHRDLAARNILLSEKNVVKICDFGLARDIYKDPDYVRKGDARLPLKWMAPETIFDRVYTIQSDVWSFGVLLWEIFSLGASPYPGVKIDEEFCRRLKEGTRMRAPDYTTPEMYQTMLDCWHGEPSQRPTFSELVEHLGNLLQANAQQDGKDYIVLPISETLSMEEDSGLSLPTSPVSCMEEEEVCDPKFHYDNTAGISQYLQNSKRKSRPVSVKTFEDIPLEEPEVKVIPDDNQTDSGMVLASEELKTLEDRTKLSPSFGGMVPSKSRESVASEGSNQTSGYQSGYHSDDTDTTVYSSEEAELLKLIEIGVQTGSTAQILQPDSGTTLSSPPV
Tyrosine-protein kinase receptor UFO (Homo sapiens), sequence (P30530 whole entry): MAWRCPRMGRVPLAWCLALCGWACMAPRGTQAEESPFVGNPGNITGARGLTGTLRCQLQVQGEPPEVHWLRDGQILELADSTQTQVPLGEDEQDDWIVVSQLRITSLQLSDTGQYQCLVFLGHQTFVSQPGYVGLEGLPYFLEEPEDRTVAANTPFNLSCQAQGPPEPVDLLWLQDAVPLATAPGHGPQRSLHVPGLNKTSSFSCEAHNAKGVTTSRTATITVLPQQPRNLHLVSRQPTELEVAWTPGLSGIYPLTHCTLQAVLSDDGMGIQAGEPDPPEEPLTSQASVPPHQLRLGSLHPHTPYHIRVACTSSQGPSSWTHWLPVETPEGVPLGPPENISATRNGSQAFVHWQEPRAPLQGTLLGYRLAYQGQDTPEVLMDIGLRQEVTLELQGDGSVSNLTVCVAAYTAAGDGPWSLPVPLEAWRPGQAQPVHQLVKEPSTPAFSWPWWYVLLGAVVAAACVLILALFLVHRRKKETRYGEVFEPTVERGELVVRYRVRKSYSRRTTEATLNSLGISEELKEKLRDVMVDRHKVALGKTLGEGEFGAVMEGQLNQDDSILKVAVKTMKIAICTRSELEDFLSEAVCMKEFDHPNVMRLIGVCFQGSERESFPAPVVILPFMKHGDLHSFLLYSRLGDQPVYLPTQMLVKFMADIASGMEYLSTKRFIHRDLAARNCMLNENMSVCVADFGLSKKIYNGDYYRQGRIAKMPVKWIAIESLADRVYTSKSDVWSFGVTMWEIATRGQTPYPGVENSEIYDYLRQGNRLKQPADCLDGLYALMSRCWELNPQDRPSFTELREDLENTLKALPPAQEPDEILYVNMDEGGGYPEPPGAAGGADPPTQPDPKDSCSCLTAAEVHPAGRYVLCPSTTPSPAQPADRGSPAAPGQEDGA
Hepatocyte growth factor receptor, sequence (P08581 whole entry, the tested form may be a part): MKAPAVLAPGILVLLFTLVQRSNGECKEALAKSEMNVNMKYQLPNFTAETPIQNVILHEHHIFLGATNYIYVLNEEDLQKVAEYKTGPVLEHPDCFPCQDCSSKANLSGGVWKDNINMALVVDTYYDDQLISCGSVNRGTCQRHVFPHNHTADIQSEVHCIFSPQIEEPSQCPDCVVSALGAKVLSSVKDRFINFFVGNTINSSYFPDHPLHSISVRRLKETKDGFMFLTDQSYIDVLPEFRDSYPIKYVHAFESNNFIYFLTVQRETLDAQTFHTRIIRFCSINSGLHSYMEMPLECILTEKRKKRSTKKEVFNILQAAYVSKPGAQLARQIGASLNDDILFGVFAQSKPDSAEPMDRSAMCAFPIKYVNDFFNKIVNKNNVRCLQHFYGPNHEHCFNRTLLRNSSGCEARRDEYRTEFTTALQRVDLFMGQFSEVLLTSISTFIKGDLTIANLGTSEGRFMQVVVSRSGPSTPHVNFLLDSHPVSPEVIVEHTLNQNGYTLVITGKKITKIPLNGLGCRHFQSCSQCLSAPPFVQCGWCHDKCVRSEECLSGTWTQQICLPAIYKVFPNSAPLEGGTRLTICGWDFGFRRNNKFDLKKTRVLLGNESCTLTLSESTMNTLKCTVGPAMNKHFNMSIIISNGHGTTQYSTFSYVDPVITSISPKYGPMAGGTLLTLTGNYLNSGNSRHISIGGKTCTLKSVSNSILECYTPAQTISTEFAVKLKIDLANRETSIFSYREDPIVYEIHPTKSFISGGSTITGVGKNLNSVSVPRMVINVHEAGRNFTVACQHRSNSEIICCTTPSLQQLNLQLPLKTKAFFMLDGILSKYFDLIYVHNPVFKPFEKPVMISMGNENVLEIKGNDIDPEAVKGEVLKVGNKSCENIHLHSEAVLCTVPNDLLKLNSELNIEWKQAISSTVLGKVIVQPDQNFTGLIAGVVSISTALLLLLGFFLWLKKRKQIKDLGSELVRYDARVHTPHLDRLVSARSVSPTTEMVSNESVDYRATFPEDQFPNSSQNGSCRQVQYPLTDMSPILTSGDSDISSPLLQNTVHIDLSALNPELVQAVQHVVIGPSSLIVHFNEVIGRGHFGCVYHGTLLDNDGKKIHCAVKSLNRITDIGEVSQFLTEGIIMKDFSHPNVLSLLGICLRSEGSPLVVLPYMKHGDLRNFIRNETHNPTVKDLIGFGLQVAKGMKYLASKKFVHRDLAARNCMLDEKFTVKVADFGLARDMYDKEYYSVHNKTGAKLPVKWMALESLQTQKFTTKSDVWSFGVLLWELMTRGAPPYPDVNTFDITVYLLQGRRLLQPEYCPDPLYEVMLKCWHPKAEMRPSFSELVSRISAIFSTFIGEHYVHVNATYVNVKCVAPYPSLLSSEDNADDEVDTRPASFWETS
Platelet-derived growth factor receptor beta, sequence (P09619 whole entry, the tested form may be a part): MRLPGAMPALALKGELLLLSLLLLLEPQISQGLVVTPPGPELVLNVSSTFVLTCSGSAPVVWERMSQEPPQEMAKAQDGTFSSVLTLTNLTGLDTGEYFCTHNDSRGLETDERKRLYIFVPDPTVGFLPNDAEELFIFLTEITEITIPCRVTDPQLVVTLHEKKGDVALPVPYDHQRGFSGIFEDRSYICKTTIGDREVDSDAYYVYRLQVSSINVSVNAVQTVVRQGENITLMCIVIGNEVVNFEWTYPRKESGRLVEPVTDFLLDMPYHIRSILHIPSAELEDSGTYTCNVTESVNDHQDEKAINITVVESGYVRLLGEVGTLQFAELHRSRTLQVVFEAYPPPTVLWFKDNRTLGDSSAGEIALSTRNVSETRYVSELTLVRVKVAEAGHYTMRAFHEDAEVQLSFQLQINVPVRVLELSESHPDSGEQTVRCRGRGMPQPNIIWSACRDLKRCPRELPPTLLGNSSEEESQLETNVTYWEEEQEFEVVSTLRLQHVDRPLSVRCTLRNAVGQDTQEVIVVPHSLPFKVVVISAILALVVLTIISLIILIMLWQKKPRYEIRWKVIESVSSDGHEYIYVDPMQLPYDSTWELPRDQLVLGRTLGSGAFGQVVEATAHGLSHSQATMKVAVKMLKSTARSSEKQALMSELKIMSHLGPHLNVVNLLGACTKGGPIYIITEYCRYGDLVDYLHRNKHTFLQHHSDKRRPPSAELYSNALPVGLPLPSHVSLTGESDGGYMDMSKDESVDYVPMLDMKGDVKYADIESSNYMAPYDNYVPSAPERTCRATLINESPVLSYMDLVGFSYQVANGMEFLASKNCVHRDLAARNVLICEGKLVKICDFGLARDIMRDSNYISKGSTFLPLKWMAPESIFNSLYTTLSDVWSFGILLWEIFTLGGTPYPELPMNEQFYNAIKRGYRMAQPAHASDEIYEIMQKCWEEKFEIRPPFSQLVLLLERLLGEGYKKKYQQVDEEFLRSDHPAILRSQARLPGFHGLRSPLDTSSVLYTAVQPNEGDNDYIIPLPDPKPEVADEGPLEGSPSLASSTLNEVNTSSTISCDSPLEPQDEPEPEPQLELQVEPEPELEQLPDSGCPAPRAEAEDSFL

SMILES	IC50 (MCF7) [nM]	inhibition [1] [%]	IC50 (A549) [nM]	IC50 (PC-3) [nM]	IC50 (HT-29) [nM]	IC50 [2] [nM]	IC50 [3] [nM]	IC50 [4] [nM]	IC50 [5] [nM]	IC50 [6] [nM]	IC50 [7] [nM]
COc1cc2c(Oc3ccc(NC(=O)C(C)c4nnc(-c5ccc(F)cc5)o4)cc3F)ccnc2cc1OCCCN1CCOCC1 (stereo unspecified)	1050		52	1180	2540						
COc1cc2c(Oc3ccc(NC(=O)C(C)c4nnc(-c5ccc(F)cc5)o4)cc3F)ccnc2cc1OCCCN1CCC(C)CC1 (stereo unspecified)	1000		32	530	1460	62	40	47	> 200	> 200	> 200
COc1cc2c(Oc3ccc(NC(=O)C(C)c4nnc(-c5ccc(F)cc5)o4)cc3F)ccnc2cc1OCCCN1CCCCC1 (stereo unspecified)	1040		86	1260	1000						

Further lines, results first:

IC50 (MCF7) [nM]	inhibition [1] [%]	IC50 (A549) [nM]	IC50 (PC-3) [nM]	IC50 (HT-29) [nM]	IC50 [2] [nM]	IC50 [3] [nM]	IC50 [4] [nM]	IC50 [5] [nM]	IC50 [6] [nM]	IC50 [7] [nM]	SMILES
2000	88	210	810								COc1cc2c(Oc3ccc(NC(=O)C4(C(=O)Nc5ccc(F)cc5)CC4)cc3F)ccnc2cc1OCCCN1CCOCC1 [FORETINIB]
370		420	1490	648							COc1cc2c(Oc3ccc(NC(=O)C(C)(C)c4nnc(-c5ccc(F)cc5)o4)cc3F)ccnc2cc1OCCCN1CCC(C)CC1
